This note sets out measurements from ChEMBL document CHEMBL1287706 (Bioorg Med Chem, 2010).

The structures appear in SMILES notation. Structures can show the parent of a compound that is named as a salt.

Assay [1] concerns the target Sodium-dependent dopamine transporter (Rattus norvegicus, UniProt P23977). Put plainly: biochemical. Format: tissue-based, Sprague-Dawley, Brain.
In assay [2] the target is Sodium-dependent serotonin transporter (Rattus norvegicus, UniProt P31652). The arrangement: species or system Sprague-Dawley.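 Also: radioligand competition using [3H]citalopram bound to serotonin transporter in Sprague-Dawley rat brain tissue, 1 h incubation, bound radioactivity quantified by liquid scintillation counting.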
Description: Displacement of [3H]citalopram from serotonin transporter in Sprague-Dawley rat brain after 1 hr by liquid scintillation counting
The target of assay [3] is Transporter (Rattus norvegicus, UniProt Q63380). Put plainly: biochemical. Format: tissue-based, Sprague-Dawley, Frontal cortex.
Transporter, sequence (Q63380 whole entry): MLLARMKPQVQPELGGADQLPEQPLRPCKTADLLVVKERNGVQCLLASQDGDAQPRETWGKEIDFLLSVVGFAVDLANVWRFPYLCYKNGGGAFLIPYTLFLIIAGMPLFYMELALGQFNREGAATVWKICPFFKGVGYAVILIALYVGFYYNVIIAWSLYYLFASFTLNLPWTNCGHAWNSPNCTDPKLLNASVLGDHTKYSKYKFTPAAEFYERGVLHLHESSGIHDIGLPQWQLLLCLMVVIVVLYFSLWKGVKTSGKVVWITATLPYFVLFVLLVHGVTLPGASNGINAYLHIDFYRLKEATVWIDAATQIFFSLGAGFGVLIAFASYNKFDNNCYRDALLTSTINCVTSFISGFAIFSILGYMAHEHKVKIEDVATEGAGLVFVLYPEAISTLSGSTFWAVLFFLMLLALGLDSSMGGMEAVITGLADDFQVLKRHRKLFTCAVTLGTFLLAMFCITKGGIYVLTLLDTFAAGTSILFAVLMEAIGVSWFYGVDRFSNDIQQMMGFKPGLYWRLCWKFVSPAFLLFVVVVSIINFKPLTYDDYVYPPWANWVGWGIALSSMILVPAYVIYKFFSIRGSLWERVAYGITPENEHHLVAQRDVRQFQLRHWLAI
Description: Displacement of [3H]nisoxetine from norepinephrine transporter in Sprague-Dawley rat frontal cortex after 1 hr by liquid scintillation counting

Sodium-dependent dopamine transporter, sequence (P23977 whole entry): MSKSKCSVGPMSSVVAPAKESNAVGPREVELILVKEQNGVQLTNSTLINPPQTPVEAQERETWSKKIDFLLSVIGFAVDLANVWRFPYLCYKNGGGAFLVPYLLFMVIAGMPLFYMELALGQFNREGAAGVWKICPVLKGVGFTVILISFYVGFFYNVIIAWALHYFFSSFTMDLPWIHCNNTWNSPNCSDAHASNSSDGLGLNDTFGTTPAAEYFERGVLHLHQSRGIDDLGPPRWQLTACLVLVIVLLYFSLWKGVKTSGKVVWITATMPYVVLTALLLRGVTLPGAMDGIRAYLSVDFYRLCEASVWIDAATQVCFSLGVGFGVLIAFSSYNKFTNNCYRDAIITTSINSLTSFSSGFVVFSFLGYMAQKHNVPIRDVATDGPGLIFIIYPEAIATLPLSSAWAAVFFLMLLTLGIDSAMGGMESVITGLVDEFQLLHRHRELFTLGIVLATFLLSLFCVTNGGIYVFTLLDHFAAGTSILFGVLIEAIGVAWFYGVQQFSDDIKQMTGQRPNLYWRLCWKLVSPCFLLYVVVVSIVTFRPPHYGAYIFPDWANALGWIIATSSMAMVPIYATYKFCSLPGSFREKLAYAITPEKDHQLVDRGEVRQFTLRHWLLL
Sodium-dependent serotonin transporter, sequence (P31652 whole entry): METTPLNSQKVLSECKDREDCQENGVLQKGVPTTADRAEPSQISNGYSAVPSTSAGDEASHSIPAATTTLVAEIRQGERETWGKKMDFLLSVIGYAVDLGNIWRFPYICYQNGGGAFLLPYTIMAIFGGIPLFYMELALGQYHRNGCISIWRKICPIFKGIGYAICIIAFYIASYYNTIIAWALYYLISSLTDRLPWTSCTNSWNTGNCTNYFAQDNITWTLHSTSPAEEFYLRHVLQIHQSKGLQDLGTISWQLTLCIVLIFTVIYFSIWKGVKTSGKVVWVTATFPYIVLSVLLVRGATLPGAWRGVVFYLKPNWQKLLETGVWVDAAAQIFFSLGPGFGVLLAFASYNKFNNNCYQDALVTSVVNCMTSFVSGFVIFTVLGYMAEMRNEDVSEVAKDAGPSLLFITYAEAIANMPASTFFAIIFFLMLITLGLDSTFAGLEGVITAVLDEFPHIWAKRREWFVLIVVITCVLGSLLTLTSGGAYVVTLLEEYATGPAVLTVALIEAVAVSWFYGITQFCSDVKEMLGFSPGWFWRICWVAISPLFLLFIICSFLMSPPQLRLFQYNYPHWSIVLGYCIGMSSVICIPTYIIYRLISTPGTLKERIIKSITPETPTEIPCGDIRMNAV

Consider `CCOC(=O)C1(c2ccc(I)cc2)CCNCC1`, for which the Ki in assay [1] came out at 3500 nM; in assay [2] it was 2.5 nM.

Consider `CN1CCC(C(=O)OCc2ccccc2)(c2ccc(Cl)c(Cl)c2)CC1`, for which the inhibition constant Ki is 2970 nM in assay [1], 901 nM in assay [3] and 3.9 nM in assay [2].

On to `COc1ccc(COC(=O)C2(c3ccc(Cl)c(Cl)c3)CCN(C)CC2)cc1`, for which the figures for the Ki in assay [1], in assay [3] and in assay [2] were 2790 nM, 300 nM and 1.7 nM, respectively.

Consider `CN1CCC(C(=O)OCc2ccc([N+](=O)[O-])cc2)(c2ccc(Cl)c(Cl)c2)CC1`, for which the Ki is 1530 nM in assay [1], 333 nM in assay [3] and 1 nM in assay [2].

Consider `CN1CCC(C(=O)OCc2ccc(Cl)c(Cl)c2)(c2ccc(Cl)c(Cl)c2)CC1`, for which the Ki in assay [1] amounted to 5230 nM; in assay [2] it was 4.3 nM.

On to `CN1CCC(C(=O)OCc2ccc(Br)cc2)(c2ccc(Cl)c(Cl)c2)CC1`, for which the Ki in assay [1] was found to be 2560 nM; in assay [3], 580 nM; in assay [2] it was 7 nM.

Consider `CN1CCC(C(=O)OCc2ccc(I)cc2)(c2ccc(Cl)c(Cl)c2)CC1`, for which the Ki is 3470 nM in assay [1] and 13.2 nM in assay [2].

On to `CN1CCC(C(=O)OCc2ccc(-c3ccccc3)cc2)(c2ccc(Cl)c(Cl)c2)CC1`, for which the Ki in assay [1] came to 5630 nM; in assay [2], 10.9 nM.

`CN1CCC(C(=O)OCc2ccccc2)(c2ccc(-c3ccccc3)cc2)CC1`: the Ki in assay [1] was found to be 2310 nM; in assay [2], 49.5 nM.

On to `O=C(OCc1ccccc1)C1(c2ccc(Cl)c(Cl)c2)CCNCC1`, for which the Ki in assay [1] worked out at 919 nM; in assay [2], 9.2 nM.

Turning to `COc1ccc(COC(=O)C2(c3ccc(Cl)c(Cl)c3)CCNCC2)cc1`, the Ki in assay [1] turned out to be 1260 nM; in assay [3], 3130 nM; in assay [2], 10.2 nM.

Take `O=C(OCc1ccc([N+](=O)[O-])cc1)C1(c2ccc(Cl)c(Cl)c2)CCNCC1`: the Ki in assay [1] turned out to be 1300 nM; in assay [3], 1440 nM; in assay [2] it was 6.4 nM.

On to `O=C(OCc1ccc(Cl)c(Cl)c1)C1(c2ccc(Cl)c(Cl)c2)CCNCC1`, for which the Ki in assay [1] stood at 2890 nM; in assay [3], 11900 nM; in assay [2] it was 30.2 nM.

With `O=C(OCc1ccc(C(F)(F)F)cc1)C1(c2ccc(Cl)c(Cl)c2)CCNCC1`, the Ki was determined as 2240 nM in assay [1], 7900 nM in assay [3] and 46.7 nM in assay [2].

In the case of `O=C(OCc1ccccc1)C1(c2ccc(-c3ccccc3)cc2)CCNCC1`, the Ki in assay [1] is 1110 nM; in assay [2], 2 nM.

On to `COc1ccc(COC(=O)C2(c3ccc(I)cc3)CCNCC2)cc1`, for which the Ki came to 2920 nM in assay [1], 2730 nM in assay [3] and 0.6 nM in assay [2].

With `O=C(OCc1ccc([N+](=O)[O-])cc1)C1(c2ccc(I)cc2)CCNCC1`, the Ki stood at 1780 nM in assay [1], 2070 nM in assay [3] and 5.9 nM in assay [2].

Consider `O=C(OCc1ccc(Cl)c(Cl)c1)C1(c2ccc(I)cc2)CCNCC1`, for which the Ki is 4340 nM in assay [1], 6060 nM in assay [3] and 5.9 nM in assay [2].

On to `COc1ccc(COC(=O)C2(c3ccc4ccccc4c3)CCNCC2)cc1`, for which the inhibition constant (Ki) in assay [1] was 889 nM; in assay [3] it was 2350 nM; in assay [2], 2.9 nM.

Consider `O=C(OCc1ccc([N+](=O)[O-])cc1)C1(c2ccc3ccccc3c2)CCNCC1`, for which the Ki stood at 732 nM in assay [1], 937 nM in assay [3] and 2 nM in assay [2].

Consider `O=C(OCc1ccc(Cl)c(Cl)c1)C1(c2ccc3ccccc3c2)CCNCC1`, for which the figures for the Ki in assay [1], in assay [3] and in assay [2] were 3210 nM, 16600 nM and 26.5 nM, respectively.

With `CN1CCC(C(=O)OCc2ccc3ccccc3c2)(c2ccc(Cl)c(Cl)c2)CC1`, the results for the Ki in assay [1], in assay [3] and in assay [2] were 4910 nM, 2550 nM and 9.9 nM, respectively.

On to `CCOC(=O)C1(c2ccc(Cl)c(Cl)c2)CCNCC1`, for which the Ki in assay [1] amounted to 321 nM; in assay [2], 21.6 nM.

As for `CCOC(=O)C1(c2ccc(-c3ccccc3)cc2)CCNCC1`, the values for the Ki in assay [1] and in assay [2] were 3210 nM and 3.3 nM, respectively.

`CCOC(=O)C1(c2ccc3ccccc3c2)CCNCC1`: the Ki in assay [1] was found to be 710 nM; in assay [2], 14.1 nM.

As to `CCOC(=O)C1(c2ccc(I)cc2)CCN(C)CC1`, the Ki in assay [3] turned out to be 519000 nM.

On to `CCOC(=O)C1(c2ccc3ccccc3c2)CCN(C)CC1`, for which the Ki in assay [3] stood at 71000 nM.

Molecule `Fc1ccc([C@@H]2CCNC[C@H]2COc2ccc3c(c2)OCO3)cc1` [PAROXETINE HYDROCHLORIDE] yielded a Ki in assay [3] of 59 nM.

By Ki is commonly meant the dissociation constant of the complex between target and ligand, obtained from inhibition or displacement.
